Results from US7807648B2, “G-rich polynucleotides for the treatment of Huntington's Disease” (University of Delaware, priority 2005, dated 2010).
“Also recorded” adds a separate entry of the source. Each block holds one compound with its values, some of them ahead of it.

Key:
[1] = molecular target: T1, GST-Q58-Htn (Homo sapiens, UniProt P42858, INS38QQQQQQQQQQQQQQQQQQQQQQQQQQQQQQQQQQQQQ); test: Biochemical/immunoblotting filter assay of mutant Htt fragment aggregation; conditions: for inhibitory activity on aggregation (overall statement): concentration not given, 0.5-60 μM tested; for inhibitory activity on aggregation (overall statement) / inhibition of aggregate formation: 24 h; for inhibition of Htt aggregation: 1-5 μM concentrations, dose curve FIG. 4; for inhibition of aggregate formation: ODN at 20 μM or 40 μM, FIG. 5/6; for reproducible inhibitory activity: biochemical assay
T1 construct: this fragment consists of the amino terminal 171 amino acids with a tract of 58 glutamine residues fused to GST; GST (N, cleaved yes)
T1 sequence (P42858 with tags, fused parts or gaps with the stated changes limits assumed): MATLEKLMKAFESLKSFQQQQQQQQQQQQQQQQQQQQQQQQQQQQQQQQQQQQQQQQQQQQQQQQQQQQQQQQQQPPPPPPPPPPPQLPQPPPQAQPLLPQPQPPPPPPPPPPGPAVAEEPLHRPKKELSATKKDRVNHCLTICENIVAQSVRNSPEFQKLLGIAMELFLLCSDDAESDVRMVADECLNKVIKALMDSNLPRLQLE

[2] = test system: Httexon1-eGFP fusion protein aggregation in HEK293 cells; test: Aggregate formation (green fluorescent foci) in HEK293 cells transfected with p72Q, microscopy; type: cell-based, human; conditions: for inhibition of aggregate formation (number of green fluorescent foci): 150-750 nM; for reproducible inhibitory activity: cell-based assay
[3] = test system: polyQ aggregates; conditions: cited from earlier work; for inhibition of the aggregation process: R6/2 mouse model; for toxicity: mouse, in vivo
[4] = test system: aggregated Htt-eGFP in HEK293 cells; test: FACS analysis of aggregation in HEK293 cells transfected with p72Q; type: cell-based, human; conditions: 1 μM and 2.5 μM, 48 hours, FIG. 13
[5] = co-transfected with p72Q, 48 hours

Compound: 5′-GGGGGTGGGGGTGGGGTGGGGGT-3′ [T40216]
inhibitory activity on aggregation (overall statement) [1]: effective inhibitors of aggregation; also recorded: capable of inhibiting GST-Q58-Htn aggregation

dose response of aggregation inhibition [1]: dose response visible
Compound: 5′-GGGTGGGTGGGTGGGT-3′ [T30923]
inhibitory activity on aggregation (overall statement) [1]: effective inhibitors of aggregation; also recorded: capable of inhibiting GST-Q58-Htn aggregation | inhibition of aggregate formation (number of green fluorescent foci) [2, 5]: could not fully substitute for HDG

Compound: 5′-GGTGGTGGTGGTTGTGGTGGTGGTGG-3′ (DNA GGTGGTGGTGGTTGTGGTGGTGGTGG; listed as DNA, chemistry not given here) [GRO26B]
inhibitory activity on aggregation (overall statement) [1]: inhibit Huntington aggregation

inhibitory activity on aggregation (overall statement) [1]: inhibit Huntington aggregation
Compound: 5′-TTTGGTGGTGGTGGTTGTGGTGGTGGTGG-3′ [GRO29A]

Compound: Oc1c(I)cc(Cl)c2cccnc12 [Clioquinol]
inhibition of the aggregation process [3]: inhibit the aggregation process | toxicity [3]: neurotoxicity

Compound: Nc1c(/N=N/c2ccc(-c3ccc(/N=N/c4cc(S(=O)(=O)O)c5ccccc5c4N)cc3)cc2)cc(S(=O)(=O)O)c2ccccc12 [Congo Red]
inhibition of the aggregation process [3]: inhibit the aggregation process | toxicity [3]: neurotoxicity | reduction of green fluorescent foci ([2]; Congo Red added concurrently with p72Q (0.2 μM or 1 μM), higher dosage, FIG. 8): significant reduction | inhibition of aggregate formation (number of green fluorescent foci) [2, 5]: displayed effects similar to HDG | inhibition of aggregate formation ([2]; lower dosage of Congo Red (0.2 μM or 1 μM), FIG. 8): only partially inhibited

Compound: HDA: 20-mer with all As (DNA AAAAAAAAAAAAAAAAAAAA; listed as DNA, chemistry not given here)
inhibition of Htt aggregation [1]: unable to detect any Htt aggregate inhibition | inhibition of aggregate formation [1]: unable to inhibit aggregate formation; also recorded: no inhibition of aggregation was observed | reproducible inhibitory activity [1]: None | reproducible inhibitory activity [2]: None | inhibition of aggregate formation (number of green fluorescent foci) [2, 5]: little effect on the number of aggregates; also recorded: does not appear to inhibit aggregate formation | peak of high intensity eGFP (aggregates) [4]: little detectable change; also recorded: no significant reduction in aggregates

Compound: HDG 20/2: HDG 20-mer wherein every other G was substituted with a T residue (DNA GTGTGTGTGTGTGTGTGTGT; listed as DNA, chemistry not given here)
activity of HDG variants with T residues inserted ([2]; co-transfected with p72Q, 48 hours, FIG. 11): None of these molecules were found to be effective inhibitors of aggregation; also recorded: reduced significantly; also recorded: low level of activity

Compound: HDT: 20-mer with all T's (DNA TTTTTTTTTTTTTTTTTTTT)
inhibition of Htt aggregation [1]: unable to detect any Htt aggregate inhibition | inhibition of aggregate formation [1]: unable to inhibit aggregate formation; also recorded: no inhibition of aggregation was observed | reproducible inhibitory activity [1]: None | reproducible inhibitory activity [2]: None
